Data on 10 compounds can be found in US10195185B2, “3-(1H-imidazo[4,5-C]pyridin-2-yl)-1H-pyrazolo[4,3-B]pyridines and therapeutic uses thereof” (Samumed, LLC, priority 2015, dated 2019).

Holding throughout (type): cell-based
The test system of one assay is SW480 colon cancer cells. The assay can be described thus: Cell viability assay (CellTiter-Blue), four days. The following applies: Homo sapiens, 96 h; for inhibition at 10 µM: read-out: percent inhibition at 10 μM (given for EC50 of >10 μM); for EC50: CellTiter-Blue cell viability. The protocol: Representative compounds were screened using the following assay procedure to assess the effect on cell viability as described below.
Each compound was dissolved in DMSO as a 10 mM stock and used to prepare compound source plates. Serial dilution (1:3, 8-point dose-response curves from 10 μM to 0.0045 μM) and compound transfer was performed using the ECHO 550 (Labcyte, Sunnyvale, Calif.) into 96-well clear bottom, black-walled plates (Corning-Costar).
Approximately 2×10^3 SW480 colon cancer cells were seeded into each well and allowed to incubate in the presence or absence of compound for four days at 37° C./5% CO2. Eight replicates of DMSO-treated cells served as controls and cells treated with compound were performed in duplicate.
After incubation, 20 μL of CellTiter-Blue (Promega) was added to each well allowed to incubate for approximately 3 hours. This reagent was a buffered solution which contains resazurin, metabolically active cells were able to reduce rezarurin (blue) into resorufin (pink) which was highly fluorescent. This measured fluorescence was used as a readout for cell viability.
After incubation, the plates were read at Ex 560 nm Em 590 nm (Cytation 3, BioTek). Dose-response curves were generated and EC50 concentration values were calculated using non-linear regression curve fit in the GraphPad Prism (San Diego, Calif.) or Dotmatics' Studies Software (Bishops Stortford, UK). For EC50 of >10 μM, the percent inhibition at 10 μM is provided.

Assay [1] concerns IL-6 in human monocyte cell line (THP-1 cells). The assay can be described thus: IL-6 inhibition in LPS-stimulated THP-1 cells (HTRF). The following applies: IL-6 in LPS-stimulated THP-1 cells; for EC50: HTRF; for inhibition at 10 µM: read-out: percent inhibition in brackets beside EC50 >10 μM. As to the method:
Human monocyte cell line (THP-1 cells; Catalog # TIB-202, ATCC, Manassas, Va.) were cultured in Roswell Park Memorial Institute (RPMI) 1640 Medium (Catalog #21870-100, Buffalo, N.Y.) with 1% L-glutamine, 1% HEPES, 1% Sodium Pyruvate, 2% Sodium Bicarbonate supplemented with 100 units/mL penicillin, 50 μg/mL streptomycin, 2-mercaptoethanol (0.05 mM) [basal medium] and 10% fetal bovine serum (Catalog #16140089, Life Technologies, Carlsbad, Calif.) at 37° C. and 5% CO2.
THP-1 cells were cultured in basal media with 1% FBS for 24 hours before the start of the assay. Each compound was dissolved in DMSO as a 10 mM stock and used to prepare compound source plates. Serial dilution (1:3, 10-point dose-response curves starting from 10 μM) and compound transfer was performed using the ECHO 550 (Labcyte, Sunnyvale, Calif.) into 384-well white low volume assay plates (Greiner Bio-One) with appropriate DMSO backfill for a final DMSO concentration of 0.1%. THP-1 cells were plated at 5000 cells/well in the 384-well plates and incubated at 37° C. for 2 h. 500 ng/mL of LPS was added after 2 hours and cells were incubated for another 22 hours at 37° C. Plates were spun in a centrifuge for 1 minute at […] and a mixture of anti-IL6 XL665, and anti-IL6 Cryptate diluted in reconstitution buffer (Cisbio Inc.) was added to each well. Following incubation for 3 hrs at room temperature, Homogeneous Time-Resolved Fluorescence (HTRF) was measured using the Envision (Perkin Elmer) at 665 nm and […]. The ratio of fluorescence at 665 nm to 620 nm was used as a readout for IL6 quantification. All samples were processed in duplicate. Readings were normalized to DMSO treated cells and normalized activities were utilized for EC50 calculations using the dose-response log (inhibitor) vs. response-variable slope (four parameters) nonlinear regression feature available in GraphPad Prism 5.0 (or Dotmatics). For EC50 of >10 μM, the percent inhibition at 10 μM is provided.

The test system of assay [2] is Primary human fibroblasts derived from IPF patients (LL29 cells) treated with TGF-β1. The experiment in a line: Inhibition of the fibrotic process: αSMA staining in TGF-β1 treated fibroblasts. The conditions noted are these: Fibroblast, 96 h, LL29 fibroblasts treated with TGF-β1, 4 days; for inhibition at 10 µM: read-out: percent inhibition in brackets beside EC50 >10 μM. From the text:
Representative compounds were screened using primary human fibroblasts (derived from IPF patients) treated with TGF-β1 to determine their ability to inhibit the fibrotic process.
Primary human fibroblasts derived from IPF patients (LL29 cells) [^1Xiaoqiu Liu, et. al., “Fibrotic Lung Fibroblasts Show Blunted Inhibition by cAMP Due to Deficient cAMP Response Element-Binding Protein Phosphorylation”, Journal of Pharmacology and Experimental Therapeutics (2005), 315(2), 678-687; ^2Watts, K. L., et. al., “RhoA signaling modulates cyclin D1 expression in human lung fibroblasts; implications for idiopathic pulmonary fibrosis”, Respiratory Research (2006), 7(1), 88] were obtained from American Type Culture Collection (ATCC) and expanded in F12 medium supplemented with 15% Fetal Bovine Serum and Penicillin/Streptomycin.
Each compound was dissolved in DMSO as a 10 mM stock and used to prepare compound source plates. Serial dilution (1:2, 11-point dose-response curves from 10 μM to 1.87 nM) and compound transfer was performed using the ECHO 550 (Labcyte, Sunnyvale, Calif.) into 384-well clear bottom assay plates (Greiner Bio-One) with appropriate DMSO backfill for a final DMSO concentration of 0.1%. LL29 cells are plated at 1,500 cells/well in 80 μL/well F12 medium supplemented with 1% Fetal Bovine Serum. One hour after addition of the cells, TGF-β1 (Peprotech; 20 ng/mL) was added to the plates to induce fibrosis (ref. 1 and 2 above). Wells treated with TGF-β1 and containing DMSO were used as controls. Cells were incubated at 37° C. and 5% CO2 for 4 days. Following incubation for 4 days, SYTOX green nucleic acid stain (Life Technologies [Thermo Fisher Scientific]) was added to the wells at a final concentration of 1 μM and incubated at room temperature for 30 min. Cells were then fixed using 4% formaldehyde (Electron Microscopy Sciences), washed 3 times with PBS followed by blocking and permeabilization using 3% Bovine Serum Albumin (BSA; Sigma) and 0.3% Triton X-100 (Sigma) in PBS. Cells were then stained with antibody specific to α-smooth muscle actin (αSMA; Abcam) (ref. 1 and 2 above) in 3% Bovine Serum Albumin (BSA; Sigma) and 0.3% Triton X-100 (Sigma) in PBS, and incubated overnight at 4° C. Cells were then washed 3 times with PBS, followed by incubation with Alexa Flor-647 conjugated secondary antibody (Life Technologies [Thermo Fisher Scientific]) and DAPI at room temperature for 1 hour. Cells were then washed 3 times with PBS and plates were sealed for imaging. αSMA staining was imaged by excitation at 630 nm and emission at 665 nm and quantified using the Compartmental Analysis program on the CellInsight CX5 (Thermo Scientific). Dead or apoptotic cells were excluded from analysis based on positive SYTOX green staining. % of total cells positive for αSMA were counted in each well and normalized to the average of 11 wells treated with TGF-β1 on the same plate using Dotmatics' Studies Software. The normalized averages (fold change over untreated) of 3 replicate wells for each compound concentration were used to create dose-responses curves and EC50 values were calculated using non-linear regression curve fit in the Dotmatics' Studies Software. For EC50 of >10 μM, the percent inhibition at 10 μM is provided.

Molecules are shown by their SMILES. Bounds are passed on as bounds.

`CN(C)CCNc1cc(F)cc(-c2nccc3[nH]c(-c4n[nH]c5ccc(-c6cnccn6)nc45)nc23)c1` [Compound 792, N^1-(3-Fluoro-5-(2-(5-(pyrazin-2-yl)-1H-pyrazolo[4,3-b]pyridin-3-yl)-1H-imidazo[4,5-c]pyridin-4-yl)phenyl)-N^2,N^2-dimethylethane-1,2-diamine]: the inhibition at 10 µM in the assay on SW480 colon cancer cells is 22.1%; in assay [1] it was 32.6%; in assay [2] it was 0%. The EC50 (in the assay on SW480 colon cancer cells; in assay [1]; in assay [2]) was more than 10 µM in each case.

Turning to `CS(=O)(=O)NCc1cc(F)cc(-c2nccc3[nH]c(-c4n[nH]c5ccc(-c6cncc(NC(=O)CC7CCNCC7)c6)nc45)nc23)c1` [Compound 769, N-(5-(3-(4-(3-Fluoro-5-(methylsulfonamidomethyl)phenyl)-1H-imidazo[4,5-c]pyridin-2-yl)-1H-pyrazolo[4,3-b]pyridin-5-yl)pyridin-3-yl)-2-(piperidin-4-yl)acetamide], the inhibition at 10 µM with SW480 colon cancer cells was found to be 7.7%; in assay [1] it was 33.4%. Moreover, the EC50 with SW480 colon cancer cells is more than 10 µM; in assay [1] it was more than 10 µM; in assay [2] it was 5.05 µM.

Regarding `COc1cccc(-c2nccc3[nH]c(-c4n[nH]c5ccc(-c6cncc(NC(=O)CC(C)(C)C)c6)nc45)nc23)c1` [Compound 1006, N-(5-(3-(4-(3-methoxyphenyl)-1H-imidazo[4,5-c]pyridin-2-yl)-1H-pyrazolo [4,3-b]pyridin-5-yl)pyridin-3-yl)-3,3-dimethylbutanamide], the inhibition at 10 µM in the assay with SW480 colon cancer cells was 0%; in assay [1], 32.3%. The EC50 with SW480 colon cancer cells was more than 10 µM; in assay [1], more than 10 µM; in assay [2], 2.5 µM.

Turning to `O=C(Nc1cncc(-c2ccc3[nH]nc(-c4nc5c(-c6ccncc6)nccc5[nH]4)c3n2)c1)C1CCCCC1` [Compound 135, N-(5-(3-(4-(pyridin-4-yl)-1H-imidazo[4,5-c]pyridin-2-yl)-1H-pyrazolo[4,3-b]pyridin-5-yl)pyridin-3-yl)cyclohexanecarboxamide], the inhibition at 10 µM in the assay on SW480 colon cancer cells came to 1%; in assay [1], 33.2%; in assay [2], 0%. The EC50 (with SW480 colon cancer cells; in assay [1]; in assay [2]) was more than 10 µM throughout.

With `CC(C)Nc1cncc(-c2ccc3[nH]nc(-c4nc5c(-c6ccoc6)nccc5[nH]4)c3n2)c1` [Compound 320, 5-(3-(4-(Furan-3-yl)-1H-imidazo[4,5-c]pyridin-2-yl)-1H-pyrazolo[4,3-b]pyridin-5-yl)-N-isopropylpyridin-3-amine], the EC50 came to 0.439 µM in the assay with SW480 colon cancer cells, 0.482 µM in assay [1] and 0.17 µM in assay [2].

Consider `Nc1cncc(-c2ccc3[nH]nc(-c4nc5c(-c6ccccc6F)nccc5[nH]4)c3n2)c1` [Compound 59, 5-(3-(4-(2-Fluorophenyl)-1H-imidazo[4,5-c]pyridin-2-yl)-1H-pyrazolo[4,3-b]pyridin-5-yl)pyridin-3-amine], for which the inhibition at 10 µM in the assay with SW480 colon cancer cells came to 0%; in assay [1], 30.6%; in assay [2], 0%. In addition, the EC50 (in the assay with SW480 colon cancer cells; in assay [1]; in assay [2]) was more than 10 µM in each case.

`CC(C)(C)CC(=O)Nc1cncc(-c2ccc3[nH]nc(-c4nc5c(-c6ccccc6F)nccc5[nH]4)c3n2)c1` [Compound 72, N-(5-(3-(4-(2-fluorophenyl)-1H-imidazo[4,5-c]pyridin-2-yl)-1H-pyrazolo [4,3-b]pyridin-5-yl)pyridin-3-yl)-3,3-dimethylbutanamide]: the inhibition at 10 µM with SW480 colon cancer cells was 4.1%; in assay [1], 26.1%; in assay [2], 0%. In addition, the EC50 (in the assay with SW480 colon cancer cells; in assay [1]; in assay [2]) was more than 10 µM in each case.

As for `c1cc(-c2ccc3[nH]nc(-c4nc5c(-c6ccncc6)nccc5[nH]4)c3n2)ccn1` [Compound 130, 5-(pyridin-4-yl)-3-(4-(pyridin-4-yl)-1H-imidazo[4,5-c]pyridin-2-yl)-1H-pyrazolo[4,3-b]pyridine], the inhibition at 10 µM was 0% in the assay on SW480 colon cancer cells and 15.3% in assay [2]. The EC50 with SW480 colon cancer cells is more than 10 µM; in assay [1] it was 0.203 µM; in assay [2], more than 10 µM.

Turning to `CC(C)C(=O)Nc1cncc(-c2ccc3[nH]nc(-c4nc5c(-c6ccccc6F)nccc5[nH]4)c3n2)c1` [Compound 65, N-(5-(3-(4-(2-fluorophenyl)-1H-imidazo[4,5-c]pyridin-2-yl)-1H-pyrazolo [4,3-b]pyridin-5-yl)pyridin-3-yl)isobutyramide], the inhibition at 10 µM in the assay with SW480 colon cancer cells stood at 8.7%; in assay [1], 40.4%; in assay [2] it was 4%. Besides, the EC50 (in the assay with SW480 colon cancer cells; in assay [1]; in assay [2]) was more than 10 µM in each case.

For the compound `O=C(Nc1cncc(-c2ccc3[nH]nc(-c4nc5c(-c6ccc(F)cc6)nccc5[nH]4)c3n2)c1)C1CCC1` [Compound 49, N-(5-(3-(4-(4-Fluorophenyl)-1H-imidazo[4,5-c]pyridin-2-yl)-1H-pyrazolo [4,3-b]pyridin-5-yl)pyridin-3-yl)cyclobutanecarboxamide], the EC50 in the assay on SW480 colon cancer cells is 9.29 µM; in assay [1], more than 10 µM; in assay [2] it was more than 10 µM. The inhibition at 10 µM amounted to 0% in assay [1] and 7.5% in assay [2].
